The test system of assay [1] is high voltage activated calcium channels. In words: Fura-2AM calcium imaging, 90 mM KCl-evoked Ca2+ influx in DRG neurons. The settings on record: separated enantiomers, data not shown.
Assay [2] relates to rats. The experiment in a line: ALGOGram: TNBS-induced visceral hypersensitivity (colonic distension). The format is in vivo, rat. The settings on record: 0.4 μg/μl i.t., 120 min after treatment. As to the method:
(§1) The analgesic profile of 3-14-3-S was analyzed by an in vivo screening tool, ALGOGram™ (ANS Biotech, Riom, France). This platform allowed for obtaining information about the effects of compounds in 5 different pain areas (Acute and tonic pain, inflammatory pain, neuropathic pain, postoperative pain and visceral pain), by comparing their activity on a battery of 10 validated behavioral pain models with an ANS Biotech reference historical database (Table 1). Assessment of the efficacy, and analgesic effects of a single administration (0.4 μg/μl, i.t.) 3-14-3-S was analyzed in the rat models of. Tail flick test in healthy rats, paw pressure test in healthy rats, acetic acid-induced writhing, formalin test, Bennett model of peripheral mononeuropathy, oxaliplatin-induced neuropathy, carrageenan-induced mechanical hyperalgesia, kaolin-induced arthritis, Brennan model of incisional pain; and trinitrobenzene sulfonic acid (TNBS)-induced visceral hypersensitivity (Table 2).
(§2) Testing: 120 min after treatment. n=4/model/test (excepted for 3-14-3-S-treated group in Oxaliplatin model n=3). Results are expressed for each group as a percentage of activity calculated from the mean value of the vehicle-treated animals and compared to naïve animals, control paw or cut-off value, depending on the test (from the ANS Biotech historical database). Ligand Docking

The subject of assay [3] is rats. The experiment in a line: ALGOGram: oxaliplatin-induced neuropathy (paw immersion test). The class given is in vivo, rat. The settings on record: 0.4 μg/μl i.t., 120 min after treatment, n=3. As to the method:
as §1, §2

Assay [4] has as its system rats. The experiment in a line: ALGOGram: acetic acid test (abdominal cramps). The class given is in vivo, rat. The settings on record: 0.4 μg/μl i.t., 120 min after treatment. As to the method: as §1, §2
The target in another assay is T1, CaV3.1 (Homo sapiens, UniProt O43497).
T1 construct: expressed in transfected cells; host or cells: HEK293T
The experiment in a line: Whole-cell patch clamp in HEK293T cells transiently expressing CaV3.1. The class given is cell-based. The settings on record: for effect on CaV3.1 mediated currents: 50 μM. As to the method:
(§3) Human embryonic kidney HEK293T cells were cultured in DMEM supplemented with 10% fetal bovine serum and 1% penicillin/streptomycin sulfate, maintained in standard conditions (5% CO2, 37° C., saturated humidity). Cells were transfected with 2 μg of either of the channel cDNAs using Lipofectamine 2000 when cell confluence reached 70-90%. Four to six hours after transfection, cells were seeded onto poly-l-lysine-coated coverslips. Positively transfected cells were indicated by the fluorescence of co-transfected enhanced green fluorescent protein (0.2 μg). All the experiments were performed 36 hours after cell transfection.
(§4) For electrophysiological recording, the external solution contained (in mM): 105 CsCl, TEA-Cl, 2 CaCl2), 1 MgCl2, and 10 glucose (pH 7.4 adjusted with CsOH, and mOsm/L=295-305). The internal solution consisted of (in mM): 120 CsMeSO4, 11 EGTA, 2 Mg-ATP, and HEPES (pH 7.4 adjusted with CsOH, and mOsm/L=295-305). All experiments were conducted at room temperature (22-24° C.). The T-type calcium currents were elicited by a depolarization to −20 or −10 mV for 200-millisecond from a hold potential of −90 mV. Data were collected by the Patchmaster software in a HEKA EPC-10 USB patch-clamp system. Voltage errors were minimized by using 80% series resistance compensation. The capacitance artifact was canceled by using the computer-controlled circuitry of the patch-clamp amplifier. The concentration-response curves of the test compounds on CaV3 channels were fitted to a Hill equation to estimate the potency of the compounds (IC50).
(In general: Patch clamp records ionic current or voltage across a cell membrane.)

Assay [5] deals with total calcium current in small- to medium-sized DRG neurons. The experiment in a line: Whole-cell patch clamp of total Ca2+ currents in DRG neurons. The settings on record: for Activation V1/2 / Activation k (slope factor) / Inactivation V1/2 / Inactivation k (slope factor): Boltzmann fit, mean ± SEM; for peak calcium current density: overnight (DMSO −96.91±12.39); for reduction in Ca2+ currents at peak current density: overnight, compared to 0.1% DMSO. The format is cell-based, rat. As to the method:
Recordings were obtained from acutely dissociated DRG neurons as described in Bellampalli et al. Patch-clamp recordings were performed at room temperature (22-24° C.). Currents were recorded using an EPC 10 Amplifier-HEKA (HEKA Elektronik, Ludwigshafen, Germany) linked to a computer with Patchmaster software. DRG neurons were incubated overnight (˜16-24 h) with 20 μM of 3-25-R and 3-14-3-S.
For total calcium current (ICa^2+) recordings, the external solution consisted of the following (in mM): 110 N-methyl-D-glucamine, 10 BaCl2, 30 TEA-Cl, 10 HEPES, 10 glucose, 0.001 TTX (pH 7.29 adjusted with NaOH, and mOsm/L=310). Patch pipettes were filled with an internal solution containing (in mM): 150 […], 10 HEPES, 5 Mg-ATP, and 5 BAPTA, (pH 7.24 adjusted with CsOH, and from a holding potential of −90 mV to obtain the current-voltage (I-V) relation. Normalization of currents to each cell's capacitance (pF) was performed to allow for collection of current density data. For I-V curves, functions were fitted to data using a non-linear least squares analysis. I-V curves were fitted using double Boltzmann functions: f=a+g1/(1+exp((x−V1/21)/k1))+g2/(1+exp(−(x−V1/22)/k2)) where x is the prepulse potential, V1/2 is the mid-point potential and k is the corresponding slope factor for single Boltzmann functions. Double Boltzmann fits were used to describe the shape of the curve, not to imply the existence of separate channel populations. Numbers 1 and 2 simply indicate first and second mid-points; a along with g are fitting parameters.
Activation curves were obtained from the I-V curves by dividing the peak current at each depolarizing step by the driving force according to the equation: G=I/(Vmem−Erev), where I is the peak current, Vmem is the membrane potential and Erev is the reversal potential. The conductance (G) was normalized against the maximum conductance (Gmax). Steady-state inactivation (SSI) curves were obtained by applying an H-infinity protocol that consisted of 1.5-seconds conditioning pre-pulses from −100 to +30 mV in 10-mV increments followed by a 20-millisecond test pulse to +10 mV. Inactivation curves were obtained by dividing the peak current recorded at the test pulse by the maximum current (Imax). Activation and SSI curves were fitted with the Boltzmann equation.

Assay [6] has as its system rats. The experiment in a line: ALGOGram: Bennett model of peripheral mononeuropathy (paw pressure test). The class given is in vivo, rat. The settings on record: 0.4 μg/μl i.t., 120 min after treatment. As to the method:
as §1, §2

The target in a further assay is T2, CaV3.2 (Homo sapiens, UniProt O95180).
T2 construct: expressed in transfected cells; host or cells: HEK293T
T2 sequence (O95180 whole entry): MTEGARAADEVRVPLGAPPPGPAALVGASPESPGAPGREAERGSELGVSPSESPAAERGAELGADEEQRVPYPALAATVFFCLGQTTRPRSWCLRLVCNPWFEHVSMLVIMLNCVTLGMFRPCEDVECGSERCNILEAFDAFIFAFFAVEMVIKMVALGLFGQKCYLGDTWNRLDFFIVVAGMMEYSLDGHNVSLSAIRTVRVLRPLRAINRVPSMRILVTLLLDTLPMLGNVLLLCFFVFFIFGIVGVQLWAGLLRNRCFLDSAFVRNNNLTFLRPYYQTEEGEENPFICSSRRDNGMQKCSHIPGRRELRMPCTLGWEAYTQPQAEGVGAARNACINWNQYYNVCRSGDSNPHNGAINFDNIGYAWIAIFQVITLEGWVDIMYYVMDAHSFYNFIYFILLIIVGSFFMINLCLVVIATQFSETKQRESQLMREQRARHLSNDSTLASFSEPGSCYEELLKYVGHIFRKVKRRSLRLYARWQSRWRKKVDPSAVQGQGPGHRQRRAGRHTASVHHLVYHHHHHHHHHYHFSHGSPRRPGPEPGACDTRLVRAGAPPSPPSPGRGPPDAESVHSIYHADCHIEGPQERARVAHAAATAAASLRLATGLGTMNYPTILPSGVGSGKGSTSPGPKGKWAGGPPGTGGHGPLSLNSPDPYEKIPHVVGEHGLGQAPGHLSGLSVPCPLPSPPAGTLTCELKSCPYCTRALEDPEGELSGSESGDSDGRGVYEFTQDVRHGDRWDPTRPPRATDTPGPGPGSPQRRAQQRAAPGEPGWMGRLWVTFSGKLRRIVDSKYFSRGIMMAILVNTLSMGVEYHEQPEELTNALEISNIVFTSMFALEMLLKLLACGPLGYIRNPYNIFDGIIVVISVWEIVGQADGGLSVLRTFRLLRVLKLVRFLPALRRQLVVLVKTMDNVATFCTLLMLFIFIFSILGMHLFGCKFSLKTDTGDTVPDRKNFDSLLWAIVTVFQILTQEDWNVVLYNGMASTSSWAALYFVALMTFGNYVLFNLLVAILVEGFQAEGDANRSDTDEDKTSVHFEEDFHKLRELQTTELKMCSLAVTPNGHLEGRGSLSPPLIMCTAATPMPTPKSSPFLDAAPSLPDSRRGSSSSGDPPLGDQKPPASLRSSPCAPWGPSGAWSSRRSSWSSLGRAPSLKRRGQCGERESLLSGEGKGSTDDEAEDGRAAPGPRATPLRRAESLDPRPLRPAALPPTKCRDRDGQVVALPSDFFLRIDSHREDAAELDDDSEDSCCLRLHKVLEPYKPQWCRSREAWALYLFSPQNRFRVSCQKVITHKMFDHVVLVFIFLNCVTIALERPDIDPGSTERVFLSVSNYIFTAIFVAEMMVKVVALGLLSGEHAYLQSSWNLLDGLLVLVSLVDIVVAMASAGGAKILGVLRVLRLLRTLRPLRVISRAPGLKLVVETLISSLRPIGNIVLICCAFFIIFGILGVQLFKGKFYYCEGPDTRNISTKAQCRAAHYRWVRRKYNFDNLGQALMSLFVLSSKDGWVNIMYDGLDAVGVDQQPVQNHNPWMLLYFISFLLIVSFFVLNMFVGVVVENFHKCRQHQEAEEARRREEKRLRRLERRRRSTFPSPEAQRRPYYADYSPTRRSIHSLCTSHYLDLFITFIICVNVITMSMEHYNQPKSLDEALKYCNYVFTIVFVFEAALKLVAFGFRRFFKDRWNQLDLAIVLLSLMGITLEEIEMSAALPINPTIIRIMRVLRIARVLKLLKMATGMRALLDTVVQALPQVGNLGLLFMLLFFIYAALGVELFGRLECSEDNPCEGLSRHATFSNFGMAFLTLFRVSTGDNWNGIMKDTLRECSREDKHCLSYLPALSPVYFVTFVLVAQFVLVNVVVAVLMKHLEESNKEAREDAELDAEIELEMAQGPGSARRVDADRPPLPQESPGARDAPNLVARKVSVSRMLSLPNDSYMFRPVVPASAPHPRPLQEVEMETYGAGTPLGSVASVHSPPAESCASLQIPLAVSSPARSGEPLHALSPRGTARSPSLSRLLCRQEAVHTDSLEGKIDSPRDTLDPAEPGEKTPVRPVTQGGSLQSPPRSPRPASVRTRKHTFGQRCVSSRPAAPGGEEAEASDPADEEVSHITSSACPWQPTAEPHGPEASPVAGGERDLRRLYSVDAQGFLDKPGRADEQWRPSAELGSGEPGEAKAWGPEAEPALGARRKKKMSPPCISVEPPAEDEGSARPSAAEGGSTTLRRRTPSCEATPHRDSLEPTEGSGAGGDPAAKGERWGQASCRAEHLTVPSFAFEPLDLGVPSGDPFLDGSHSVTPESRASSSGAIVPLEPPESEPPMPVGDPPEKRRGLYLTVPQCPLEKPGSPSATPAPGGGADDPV
In words: Whole-cell patch clamp in HEK293T cells transiently expressing CaV3.2. The class given is cell-based. The settings on record: for effect on CaV3.2 mediated currents: 50 μM. As to the method: as §3, §4

Assay [7] has as its system healthy rats. The experiment in a line: ALGOGram: healthy rats, tail flick test. The class given is in vivo, rat. The settings on record: 0.4 μg/μl i.t., 120 min after treatment. As to the method: as §1, §2
In assay [8] the test system is rats. In words: ALGOGram: formalin test (paw licking time). The format is in vivo, rat. The settings on record: 0.4 μg/μl i.t., 120 min after treatment. As to the method:
as §1, §2

The target of a further assay is T3, CaV3.3 (Homo sapiens, UniProt Q9P0X4).
T3 construct: expressed in transfected cells; host or cells: HEK293T
T3 sequence (Q9P0X4 whole entry, species assumed): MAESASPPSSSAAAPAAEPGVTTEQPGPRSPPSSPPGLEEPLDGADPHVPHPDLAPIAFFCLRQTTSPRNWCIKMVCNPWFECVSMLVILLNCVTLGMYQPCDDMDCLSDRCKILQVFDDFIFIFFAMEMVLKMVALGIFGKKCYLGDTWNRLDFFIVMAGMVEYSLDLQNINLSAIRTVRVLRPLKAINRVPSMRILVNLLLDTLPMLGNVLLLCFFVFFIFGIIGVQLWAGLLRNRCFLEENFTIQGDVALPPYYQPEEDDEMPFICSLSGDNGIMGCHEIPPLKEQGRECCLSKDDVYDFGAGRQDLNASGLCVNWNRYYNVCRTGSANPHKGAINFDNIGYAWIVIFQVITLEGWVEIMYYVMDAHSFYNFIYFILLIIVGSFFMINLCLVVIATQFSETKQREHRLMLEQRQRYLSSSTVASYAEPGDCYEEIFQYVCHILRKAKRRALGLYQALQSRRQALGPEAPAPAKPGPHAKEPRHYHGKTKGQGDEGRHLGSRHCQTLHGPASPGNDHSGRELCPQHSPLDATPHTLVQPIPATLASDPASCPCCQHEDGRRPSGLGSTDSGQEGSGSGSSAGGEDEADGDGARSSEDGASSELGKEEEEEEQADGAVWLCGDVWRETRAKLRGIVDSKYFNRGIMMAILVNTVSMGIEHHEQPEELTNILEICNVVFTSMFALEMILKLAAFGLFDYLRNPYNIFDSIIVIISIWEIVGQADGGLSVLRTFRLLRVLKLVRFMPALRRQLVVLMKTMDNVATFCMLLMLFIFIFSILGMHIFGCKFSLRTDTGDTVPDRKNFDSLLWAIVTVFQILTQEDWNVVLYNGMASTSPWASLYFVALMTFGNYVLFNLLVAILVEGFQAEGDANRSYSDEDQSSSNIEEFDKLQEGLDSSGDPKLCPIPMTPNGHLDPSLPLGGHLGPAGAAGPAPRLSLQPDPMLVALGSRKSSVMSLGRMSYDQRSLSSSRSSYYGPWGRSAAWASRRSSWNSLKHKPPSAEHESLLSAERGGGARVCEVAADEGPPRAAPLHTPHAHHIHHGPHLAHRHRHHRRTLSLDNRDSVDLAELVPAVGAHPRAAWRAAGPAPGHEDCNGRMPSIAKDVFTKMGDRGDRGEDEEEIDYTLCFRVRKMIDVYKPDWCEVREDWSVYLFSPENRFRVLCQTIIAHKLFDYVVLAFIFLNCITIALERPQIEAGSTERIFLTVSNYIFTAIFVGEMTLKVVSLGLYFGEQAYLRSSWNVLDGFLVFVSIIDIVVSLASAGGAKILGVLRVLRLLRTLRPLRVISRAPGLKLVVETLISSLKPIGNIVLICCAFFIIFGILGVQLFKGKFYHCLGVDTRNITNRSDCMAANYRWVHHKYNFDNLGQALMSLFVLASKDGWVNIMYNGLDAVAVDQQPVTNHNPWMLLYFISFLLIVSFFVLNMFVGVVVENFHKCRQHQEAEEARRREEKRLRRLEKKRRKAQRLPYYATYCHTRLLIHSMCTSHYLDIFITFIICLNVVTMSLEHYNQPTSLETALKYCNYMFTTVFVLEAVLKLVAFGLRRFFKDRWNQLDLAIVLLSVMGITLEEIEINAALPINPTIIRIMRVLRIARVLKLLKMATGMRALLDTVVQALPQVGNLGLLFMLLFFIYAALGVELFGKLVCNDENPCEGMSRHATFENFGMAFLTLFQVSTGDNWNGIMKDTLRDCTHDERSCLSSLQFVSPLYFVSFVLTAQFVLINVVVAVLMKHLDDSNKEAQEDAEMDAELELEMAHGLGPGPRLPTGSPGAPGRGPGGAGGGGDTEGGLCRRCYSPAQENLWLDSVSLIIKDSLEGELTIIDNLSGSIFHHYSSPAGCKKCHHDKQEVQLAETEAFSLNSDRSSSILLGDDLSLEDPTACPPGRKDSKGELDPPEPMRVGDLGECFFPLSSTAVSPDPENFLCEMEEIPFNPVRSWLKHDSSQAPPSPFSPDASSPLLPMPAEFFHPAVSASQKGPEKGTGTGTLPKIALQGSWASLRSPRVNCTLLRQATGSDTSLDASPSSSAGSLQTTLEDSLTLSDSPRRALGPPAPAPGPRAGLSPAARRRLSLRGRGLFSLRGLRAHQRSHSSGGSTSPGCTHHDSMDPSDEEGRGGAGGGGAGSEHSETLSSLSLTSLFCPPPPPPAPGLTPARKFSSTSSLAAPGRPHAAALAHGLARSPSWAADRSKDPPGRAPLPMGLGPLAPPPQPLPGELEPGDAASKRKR
The experiment in a line: Whole-cell patch clamp in HEK293T cells transiently expressing CaV3.3. The format is cell-based. The settings on record: for effect on CaV3.3 mediated currents: 50 μM. As to the method: as §3, §4

Assay [9] concerns rats. In words: ALGOGram: carrageenan-induced mechanical hyperalgesia (paw pressure test). The class given is in vivo, rat. The settings on record: 0.4 μg/μl i.t., 120 min after treatment. As to the method: as §1, §2
Assay [10] concerns healthy rats. The experiment in a line: ALGOGram: healthy rats, paw pressure test. The class given is in vivo, rat. The settings on record: 0.4 μg/μl i.t., 120 min after treatment. As to the method:
as §1, §2

The target of assay [11] is influenza virus polymerase PA-PB1 protein-protein interactions (Influenza A virus, UniProt P03433). The settings on record: previously tested [93]; cited from earlier work.
In assay [12] the test system is rats. The settings on record: oxaliplatin, paw immersion test, 100 mg/kg p.o., T60 min; cited from earlier work.
For assay [13], the system named is rats. The settings on record: kaolin, gait score, 30 mg/kg p.o., T60 min; cited from earlier work.
Assay [14] has as its system rats. The settings on record: carrageenan, paw pressure test, 30 mg/kg p.o., T60 min; cited from earlier work. For orientation: In the carrageenan paw model, swelling and tenderness develop within hours.
The test system of assay [15] is rats. The settings on record: Brennan model, electronic Von Frey test, 4 mg/kg s.c., T30 min; cited from earlier work.
Assay [16] relates to rats. The settings on record: formalin test, 4 mg/kg s.c., T30 min, cited from earlier work.
In assay [17] the test system is healthy rats. The settings on record: tail flick test, 4 mg/kg s.c., T30 min; cited from earlier work. In general terms: In hot-plate and tail-flick tests a longer latency is read as antinociception.
Assay [18] concerns healthy rats. The settings on record: paw pressure test, 4 mg/kg s.c., T30 min; cited from earlier work.

Like-named read-outs stand apart in the source and are kept apart here.

One may read the IC50 as the concentration at which inhibition is half-maximal.

Regarding `O=C(Nc1cccc([C@H](c2nnnn2Cc2ccccc2)N2CCN(C(=O)c3ccco3)CC2)c1)c1ccc(Br)cc1` [1-159-2-R], the “Ca2+ influx triggered with 90 mM KCl (response, normalized)” value in [1] is listed as 67.37±2.294%.
For the compound `Cc1ccc([C@H](c2nnnn2Cc2ccccc2)N2CCN(C(=O)c3ccccc3)CC2)s1` [3-14-3-S], the “Percentage of activity vs. vehicle” value with rats [2] is reported as −11%; in the assay on rats [3], 6%; in the assay with rats [4], 33%; in the assay on rats [6], 14%; in the assay on healthy rats [7] it was 5%; with rats [8] (paw licking time early phase) it was 16%. In addition, the “Percentage of activity vs. vehicle” value is 36% in the assay with rats [8] (paw licking time late phase), 29% in the assay on rats [9] and 3% in the assay on healthy rats [10]. At CaV3.1, the “effect on CaV3.1 mediated currents” value is given as “inhibited”. Besides, the IC50 on CaV3.1 (depolarizing voltage of −10 mV) worked out at 23 µM; at CaV3.2 (depolarizing voltage of −10 mV), 35.6 µM; on CaV3.3 (depolarizing voltage of −10 mV), 26.3 µM. Besides, in assay [5], the “Activation V1/2” value is recorded as 4.083 ± 2.038 mV. Further, the “Activation k (slope factor)” value in assay [5] turned out to be 9.308 ± 1.780. In [5], the “Inactivation V1/2” value is −25.246 ± 2.129 mV. Also, in assay [5], the “Inactivation k (slope factor)” value is −12.570 ± 2.035. The “peak calcium current density” value in [5] was −41.70±7.927 pA/pF. For the same compound, the “reduction in Ca2+ currents at peak current density” value in [5] is on record as roughly 56.97%. Further, the “effect on CaV3.2 mediated currents” value on CaV3.2 is on record as “inhibited”. For the same compound, the “Ca2+ influx triggered with 90 mM KCl (response, normalized)” value in assay [1] came out at 87.25±2.245%. In addition, the “effect on CaV3.3 mediated currents” value on CaV3.3 is recorded as “inhibited”.
For `Cc1cccc(C)c1-n1nnnc1[C@@H](Cc1ccccc1)N1CCN(S(=O)(=O)c2ccccc2)CC1` [3-25-R], the “effect on CaV3.1 mediated currents” value at CaV3.1 was “negligible effects”. In [5], the “Activation V1/2” value is listed as 2.383 ± 2.037 mV, the “Activation k (slope factor)” value is recorded as 9.659 ± 1.798, the “Inactivation V1/2” value is −26.709 ± 2.655 mV and the “Inactivation k (slope factor)” value is on record as −15.208 ± 2.714. For the same compound, in assay [5], the “peak calcium current density” value was −54.1±8.385 pA/pF and the “reduction in Ca2+ currents at peak current density” value is roughly 44.17%. For the same compound, on CaV3.2, the “effect on CaV3.2 mediated currents” value is “negligible effects”. In addition, the “Ca2+ influx triggered with 90 mM KCl (response, normalized)” value in assay [1] worked out at 62.43±1.967%. For the same compound, the “effect on CaV3.3 mediated currents” value at CaV3.3 is recorded as “negligible effects”.
As to `C[C@@H](c1ccccc1)n1nnnc1[C@H](c1ccsc1)N1CCC(n2c(=O)[nH]c3ccccc32)CC1` [5bl, 1-{1-[(S)-{1-[(1S)-1-phenylethyl]-1H-1,2,3,4-tetrazol-5-yl}(thiophen-3-yl)methyl]piperidin-4-yl}-2,3-dihydro-1H-1,3-benzodiazol-2-one], in [11], the “inhibition of influenza virus polymerase PA-PB1 protein-protein interactions” value is reported as “active”.
Regarding `CNCC[C@H](Oc1cccc2ccccc12)c1cccs1` [Duloxetine], in the assay on rats [12], the “Percentage of activity vs. vehicle, internal reference” value (shortened to “Percentage … internal reference”) is given as 66%.
As to `COc1ccc2c(c1)c(CC(=O)O)c(C)n2C(=O)c1ccc(Cl)cc1` [Indomethacin], the “Percentage … internal reference” value with rats [13] is reported as 64%; in the assay with rats [14], 92%.
Take `CN1CC[C@]23c4c5ccc(O)c4O[C@H]2[C@@H](O)C=C[C@H]3[C@H]1C5` [Morphine]: the “Percentage … internal reference” value in the assay with rats [15] is listed as 107%; in the assay with rats [16] (early phase) it was 65%; in the assay on rats [16] (late phase), 77%; in the assay with healthy rats [17] it was 66%; in the assay with healthy rats [18], 67%.
